Reference: patent publication EP4640052A1 (BASF SE, priority 2024, dated 2025)
Where “and” joins values, the source holds several entries; their conditions need not be identical. Equal entries are not always repeated.

Assays:
[1] = tested on: Pyricularia oryzae (PYRIOR); assay: microbe, parasite or virus in culture; type: cell-based; details: for inhibition of growth at 0.016 ppm / inhibition of growth at 0.004 ppm / inhibition of growth at 0.063 ppm / inhibition of growth at 0.25 ppm / inhibition of growth at 1 ppm: Pyricularia oryzae, 168 h, read-out: Observed efficacy; for Observed efficacy: single active
[2] = tested on: Septoria tritici (SEPTTR); assay: microbe, parasite or virus in culture; type: cell-based
[3] = tested on: Alternaria solani (ALTESO); assay: microbe, parasite or virus in culture; type: cell-based
[4] = tested on: Pyrenophora teres (PYRNTE), Qol resistant (F129L); assay: microbe, parasite or virus in culture; type: cell-based; details: for inhibition of growth at 0.063 ppm / inhibition of growth at 1 ppm / inhibition of growth at 0.016 ppm / inhibition of growth at 0.25 ppm: Pyrenophora teres, 168 h, read-out: Observed efficacy
[5] = tested on: Sclerotinia sclerotiorum (SCLESC); assay: microbe, parasite or virus in culture; type: cell-based; details: for inhibition of growth at 0.016 ppm / inhibition of growth at 0.063 ppm / inhibition of growth at 1 ppm / inhibition of growth at 0.25 ppm: Sclerotinia sclerotiorum, 168 h, read-out: Observed efficacy
[6] = tested on: Puccinia triticina (syn. P. recondita); assay: Green house use example 9: curative control of brown rust on wheat (PUCCRT K4); type: in vivo
[7] = tested on: Puccinia triticina (syn. P. recondita); assay: Green house use example 10: preventative control of brown rust on wheat (PUCCRT P10); type: in vivo
Phakopsora pachyrhizi [8] = assay: Green house use example 13: curative control of soybean rust on soybeans (PHAKPA F129L K4); type: in vivo
Monilinia sp. (MONISP) = assay: microbe, parasite or virus in culture; type: cell-based
[9] = tested on: Blumeria graminis f. sp. tritici; assay: Green house use example 11: control of powdery mildew on wheat, sprayed 2 days after inoculation (ERYSGT K2); type: in vivo; details: G143A strain, single active
Phakopsora pachyrhizi [10] = assay: Green house use example 14: protective control of soybean rust on soybeans (PHAKPA F129L P2); type: in vivo; details: single compound
[11] = Zymoseptoria tritici, 168 h, read-out: Observed efficacy
[12] = Alternaria solani, 168 h, read-out: Observed efficacy
[13] = Trial 2, single compound, 1 ppm
[14] = Trial 1, single compound, 2 ppm
[15] = Monilinia, 168 h, read-out: Observed efficacy
[16] = Trial 1, single compound, 1 ppm
[17] = Trial 1, single compound, 4 ppm
[18] = Trial 2, single compound, 2 ppm
[19] = Trial 3, single compound, 4 ppm
[20] = Trial 2, single compound, 4 ppm

## CO/C=C(/C(=O)OC)c1cccc(C)c1CO/N=C(\COC)c1ccc(F)cc1 [I.4, Methyl (E)-2-[2-[[(Z)-[1-(4-fluorophenyl)-2-methoxy-ethylidene]amino]oxymethyl]-3-methyl-phenyl]-3-methoxy-prop-2-enoate]
[1]
  inhibition of growth at 0.016 ppm: 28%
[2]; [11]
  inhibition of growth at 0.063 ppm: 16%
  inhibition of growth at 0.25 ppm: 43%
[3]; [12]
  inhibition of growth at 0.063 ppm: 50%
[4]
  inhibition of growth at 0.063 ppm: 39%
  inhibition of growth at 1 ppm: 64%
[5]
  inhibition of growth at 0.016 ppm: 0%
  inhibition of growth at 0.063 ppm: 0%
  inhibition of growth at 1 ppm: 41%
[6]; [13]
  Observed efficacy: 49
[7]; wheat, sprayed 10 days before inoculation, single active, 2 ppm
  Observed efficacy: 12
Phakopsora pachyrhizi [8]; [14]
  Observed efficacy: 36

## N#Cc1c[nH]cc1-c1cccc2c1OC(F)(F)O2 [fludioxonil, reference compound]
[1]
  inhibition of growth at 0.004 ppm: 8%
  inhibition of growth at 0.016 ppm: 35%
  inhibition of growth at 0.063 ppm: 59%
  inhibition of growth at 0.25 ppm: 59%
[2]; [11]
  inhibition of growth at 0.063 ppm: 5%
  inhibition of growth at 0.25 ppm: 5%
  inhibition of growth at 1 ppm: 0%
[3]; [12]
  inhibition of growth at 0.016 ppm: 5%
  inhibition of growth at 0.063 ppm: 29%
Monilinia sp. (MONISP); [15]
  inhibition of growth at 0.004 ppm: 8%
[4]
  inhibition of growth at 0.063 ppm: 51%
[5]
  inhibition of growth at 0.063 ppm: 67%

## CO/C=C(/C(=O)OC)c1cccc(C)c1CO/N=C(\COC)c1ccccc1 [I.3, Methyl (E)-3-methoxy-2-[2-[[(Z)-(2-methoxy-1-phenyl-ethylidene)amino]oxymethyl]-3-methyl-phenyl]prop-2-enoate]
[1]
  inhibition of growth at 0.016 ppm: 33%
[2]; [11]
  inhibition of growth at 0.016 ppm: 0%
  inhibition of growth at 0.063 ppm: 21%
  inhibition of growth at 0.25 ppm: 49%
[3]; [12]
  inhibition of growth at 0.004 ppm: 11%
  inhibition of growth at 0.016 ppm: 32%
  inhibition of growth at 0.063 ppm: 59%
Monilinia sp. (MONISP); [15]
  inhibition of growth at 0.063 ppm: 51%
[4]
  inhibition of growth at 0.016 ppm: 26%
  inhibition of growth at 0.063 ppm: 43%
  inhibition of growth at 0.25 ppm: 51%
  inhibition of growth at 1 ppm: 62%
[5]
  inhibition of growth at 0.016 ppm: 0%
  inhibition of growth at 0.063 ppm: 3%
  inhibition of growth at 0.25 ppm: 2%

## CO/C=C(/C(=O)OC)c1cccc(Br)c1CO/N=C(\COC)c1c(F)cc(F)cc1F [I.11, Methyl (E)-2-[3-bromo-2-[[(Z)-[2-methoxy-1-(2,4,6-trifluorophenyl)ethylidene]-amino]oxymethyl]phenyl]-3-methoxy-prop-2-enoate]
[1]
  inhibition of growth at 0.063 ppm: 34%
[2]; [11]
  inhibition of growth at 0.063 ppm: 0%
  inhibition of growth at 0.25 ppm: 14%
  inhibition of growth at 1 ppm: 70%
[3]; [12]
  inhibition of growth at 0.063 ppm: 0%
  inhibition of growth at 0.25 ppm: 0%
Monilinia sp. (MONISP); [15]
  inhibition of growth at 0.001 ppm: 0%
  inhibition of growth at 0.004 ppm: 17%
[4]
  inhibition of growth at 0.016 ppm: 6%
  inhibition of growth at 0.063 ppm: 44%
  inhibition of growth at 0.25 ppm: 71%
[5]
  inhibition of growth at 0.063 ppm: 2%
[6]; [16]
  Observed efficacy: 1
[6]; [17]
  Observed efficacy: 14
[6]; [13]
  Observed efficacy: 0
[6]; [18]
  Observed efficacy: 0
[9]; 63 ppm
  Observed efficacy: 14
Phakopsora pachyrhizi [8]; [17]
  Observed efficacy: 12
Phakopsora pachyrhizi [8]; [19]
  Observed efficacy: 12
Phakopsora pachyrhizi [10]; 0.5 ppm
  Observed efficacy: 59

## CO/C=C(/C(=O)OC)c1cccc(Cl)c1CO/N=C(\COC)c1ccc(F)cc1 [I.5, Methyl-(E)-2-[3-chloro-2-[[(Z)-[1-(4-fluorophenyl)-2-methoxy-ethylidene]amino]-oxy¬imethyl]phenyl]-3-methoxy-prop-2-enoate]
[1]; 0.063 ppm
  Observed efficacy: 28%
Monilinia sp. (MONISP)
  Observed efficacy: 56
[5]
  Observed efficacy: 0

## Cc1cccc(-n2nnn(C)c2=O)c1COc1ccn(-c2ccc(Cl)cc2)n1 [metyltetraprole, reference compound]
[1]; 0.016 ppm
  Observed efficacy: 30%
[1]; 0.063 ppm
  Observed efficacy: 70%
[3]
  Observed efficacy: 22
Monilinia sp. (MONISP)
  Observed efficacy: 17

## CO/C=C(/C(=O)OC)c1cccc(Cl)c1CO/N=C(\COC)c1ccc(F)cc1F [I.6, Methyl (E)-2-[3-chloro-2-[[(Z)-[1-(2,4-difluorophenyl)-2-methoxy-ethylidene]amino]-oxymethyl]phenyl]-3-methoxy-prop-2-enoate]
[1]
  inhibition of growth at 0.004 ppm: 0%
  inhibition of growth at 0.016 ppm: 0%
  inhibition of growth at 0.063 ppm: 0%
  inhibition of growth at 1 ppm: 24%
[3]; [12]
  inhibition of growth at 0.016 ppm: 10%
  inhibition of growth at 0.063 ppm: 18%
  inhibition of growth at 0.25 ppm: 34%
Monilinia sp. (MONISP); [15]
  inhibition of growth at 0.016 ppm: 10%
  inhibition of growth at 0.063 ppm: 7%
[4]
  inhibition of growth at 0.016 ppm: 2%
  inhibition of growth at 0.063 ppm: 27%
  inhibition of growth at 0.25 ppm: 42%
  inhibition of growth at 1 ppm: 54%
[5]
  inhibition of growth at 0.016 ppm: 4%
  inhibition of growth at 0.063 ppm: 5%
  inhibition of growth at 1 ppm: 47%

## metarylpicoxamid
Phakopsora pachyrhizi [8]; Trial 3, single compound, 1 ppm
  Observed efficacy: 20
Phakopsora pachyrhizi [8]; Trial 3, single compound, 2 ppm
  Observed efficacy: 66

## mancozeb [reference compound]
[1]; 0.004 ppm
  Observed efficacy: 11%
[1]; 0.016 ppm
  Observed efficacy: 34%
[1]; 0.063 ppm
  Observed efficacy: 54%
[2]
  Observed efficacy: 18 and 19 and 13
[4]
  Observed efficacy: 59
[5]
  Observed efficacy: 59

## CO/C=C(/C(=O)OC)c1cccc(C)c1CO/N=C(\COC)c1c(F)cc(F)cc1F [I.10, Methyl (E)-3-methoxy-2-[2-[[(Z)-[2-methoxy-1-(2,4,6-trifluorophenyl)ethylidene]-amino]oxymethyl]-3-methyl-phenyl]prop-2-enoate]
[1]
  inhibition of growth at 0.063 ppm: 43%
[2]; [11]
  inhibition of growth at 0.063 ppm: 0%
  inhibition of growth at 0.25 ppm: 26%
  inhibition of growth at 1 ppm: 55%
[3]; [12]
  inhibition of growth at 0.016 ppm: 0%
  inhibition of growth at 0.063 ppm: 0%
  inhibition of growth at 0.25 ppm: 0%
[4]
  inhibition of growth at 0.016 ppm: 15%
  inhibition of growth at 0.063 ppm: 40%
  inhibition of growth at 1 ppm: 65%
[5]
  inhibition of growth at 0.016 ppm: 0%
  inhibition of growth at 0.063 ppm: 3%
  inhibition of growth at 0.25 ppm: 13%
[6]; [16]
  Observed efficacy: 3
[6]; [17]
  Observed efficacy: 14
[9]; 16 ppm
  Observed efficacy: 7
Phakopsora pachyrhizi [8]; [13]
  Observed efficacy: 13
Phakopsora pachyrhizi [8]; [20]
  Observed efficacy: 22
Phakopsora pachyrhizi [8]; [19]
  Observed efficacy: 32

## OC(Cc1ccccc1Cl)(Cn1nc[nH]c1=S)C1(Cl)CC1 (stereo not drawn) [prothioconazole, reference compound]
[1]
  inhibition of growth at 0.25 ppm: 1%
  inhibition of growth at 1 ppm: 12%
[2]; [11]
  inhibition of growth at 0.063 ppm: 5%
  inhibition of growth at 0.25 ppm: 67%
[3]; [12]
  inhibition of growth at 0.25 ppm: 10%
  inhibition of growth at 1 ppm: 14%
Monilinia sp. (MONISP); [15]
  inhibition of growth at 0.004 ppm: 19%

## CO/C=C(/C(=O)OC)c1cccc(Br)c1CO/N=C(\COC)c1ccccc1 [I.2, Methyl (E)-2-[3-bromo-2-[[(Z)-(2-methoxy-1-phenyl-ethylidene)amino]oxymethyl]-phenyl]-3-methoxy-prop-2-enoate]
[1]
  inhibition of growth at 0.016 ppm: 0%
  inhibition of growth at 0.063 ppm: 0%
  inhibition of growth at 1 ppm: 31%
[3]; [12]
  inhibition of growth at 0.063 ppm: 36%
Monilinia sp. (MONISP); [15]
  inhibition of growth at 0.001 ppm: 0%
  inhibition of growth at 0.016 ppm: 0%
  inhibition of growth at 0.063 ppm: 18%
[4]
  inhibition of growth at 0.016 ppm: 7%
  inhibition of growth at 0.063 ppm: 34%
  inhibition of growth at 0.25 ppm: 44%
  inhibition of growth at 1 ppm: 60%
[5]
  inhibition of growth at 0.063 ppm: 7%
  inhibition of growth at 1 ppm: 41%

## CC(O)(Cn1cncn1)c1ccc(Oc2ccc(Cl)cc2)cc1C(F)(F)F (racemic) [mefentrifluconazole, reference compound]
[1]; 0.063 ppm
  Observed efficacy: 0%
[1]; 1 ppm
  Observed efficacy: 53%
[3]
  Observed efficacy: 27
[4]
  Observed efficacy: 40 and 22
[6]; 1 ppm
  Observed efficacy: 39
[6]; 4 ppm
  Observed efficacy: 54

## O=C(Nc1ccccc1F)c1ccc(-c2noc(C(F)(F)F)n2)cc1 [flufenoxadiazam, reference compound]
[1]; 0.004 ppm
  Observed efficacy: 2%
[2]
  Observed efficacy: 2 and 3
[4]
  Observed efficacy: 5
Phakopsora pachyrhizi [8]; [14]
  Observed efficacy: 15
Phakopsora pachyrhizi [8]; [17]
  Observed efficacy: 31
Phakopsora pachyrhizi [8]; [18]
  Observed efficacy: 17
Phakopsora pachyrhizi [8]; [20]
  Observed efficacy: 34
Phakopsora pachyrhizi [10]; 0.5 ppm
  Observed efficacy: 0
Phakopsora pachyrhizi [10]; 2 ppm
  Observed efficacy: 63

## CO/C=C(/C(=O)OC)c1cccc(F)c1CO/N=C(\COC)c1c(F)cc(F)cc1F [I.8, Methyl (E)-2-[3-fluoro-2-[[(Z)-[2-methoxy-1-(2,4,6-trifluorophenyl)ethylidene]amino]-oxymethyl]phenyl]-3-methoxy-prop-2-enoate]
[1]
  inhibition of growth at 0.016 ppm: 0%
  inhibition of growth at 0.063 ppm: 0%
  inhibition of growth at 0.25 ppm: 2%
  inhibition of growth at 1 ppm: 18%
[3]; [12]
  inhibition of growth at 0.016 ppm: 2%
  inhibition of growth at 0.063 ppm: 0%
  inhibition of growth at 0.25 ppm: 4%
  inhibition of growth at 1 ppm: 59%
Monilinia sp. (MONISP); [15]
  inhibition of growth at 0.25 ppm: 42%
[4]
  inhibition of growth at 0.016 ppm: 1%
  inhibition of growth at 0.063 ppm: 14%
  inhibition of growth at 0.25 ppm: 20%
  inhibition of growth at 1 ppm: 44%
[5]
  inhibition of growth at 0.063 ppm: 0%

## Cn1cc(C(=O)Nc2ccccc2-c2cc(F)c(F)c(F)c2)c(C(F)F)n1 [fluxapyroxad, reference compound]
[1]; 1 ppm
  Observed efficacy: 19%
[6]; 1 ppm
  Observed efficacy: 20
[6]; 2 ppm
  Observed efficacy: 67
[7]; 1 ppm
  Observed efficacy: 42
